“Also recorded” adds a separate entry of the source. Marks after values point to notes of the source that are not given here.
Legend:
Assay type in all cases: in vivo
[1] = tested on: rat; assay: Test for possible sedative activity (motor activity) in the rat; details: 200 mg/kg, up to fifty times the oral effective dose in the MES test
Experimental: (S)-1-Phenyl-2-(2-pyridyl)ethanamine was further tested for possible sedative activity in the rat. At doses up to fifty times the oral effective dose in the maximum electroshock seizure test (MES), (S)-1-phenyl-2-(2-pyridyl)ethanamine induced no changes in four parameters of motor activity, namely, distance travelled, ambulatory time, stereotyped time and resting time. The dose administered was 200 mg/kg.

[2] = tested on: male NMRI mice; assay: Small tube test in mice; details: for Average Immobility Time: small tube test, 60 minutes pre-test, last four minutes of test; for Effect on immobility in the small tube test, in words: summary of Table 2, check for non-specific stimulant activity
[3] = tested on: male NMRI mice; assay: Forced swim test in mice; details: for Average Immobility Time: forced swim test, 60 minutes pre-test, last four minutes of test

| Molecule | Changes in four parameters of motor activity (distance travelled, ambulatory time, stereotyped time and resting time) [1] | Average Immobility Time ([2]; dose 1 mg/kg i.p.) [s] | Average Immobility Time ([2]; dose 3 mg/kg i.p.) | Average Immobility Time ([2]; dose 10 mg/kg i.p.) [s] | Effect on immobility in the small tube test, in words [2] | Average Immobility Time ([3]; dose 1 mg/kg i.p.) [s] | Average Immobility Time ([3]; dose 3 mg/kg i.p.) | Average Immobility Time ([3]; dose 10 mg/kg i.p.) | Effect in the forced swim test (reduction in immobility time), in words ([3]; summary of Table 1, dihydrochloride) | Average Immobility Time ([2]; dose 0.01 mg/kg i.p.) [s] | Average Immobility Time ([2]; dose 0.03 mg/kg i.p.) [s] | Average Immobility Time ([2]; dose 0.1 mg/kg i.p.) | Average Immobility Time ([2]; dose 0.3 mg/kg i.p.) | Average Immobility Time ([3]; dose 0.01 mg/kg i.p.) [s] | Average Immobility Time ([3]; dose 0.03 mg/kg i.p.) [s] | Average Immobility Time ([3]; dose 0.1 mg/kg i.p.) | Average Immobility Time ([3]; dose 0.3 mg/kg i.p.) | Effect in the forced swim test (reduction in immobility time), in words ([3]; summary of Table 1) |
| --- | --- | --- | --- | --- | --- | --- | --- | --- | --- | --- | --- | --- | --- | --- | --- | --- | --- | --- |
| Cl.Cl.N[C@@H](Cc1ccccn1)c1ccccc1 [(S)-1-phenyl-2-(2-pyridyl)ethanamine dihydrochloride] | no changes | 192 | 210* seconds | 201 | little effect | 158 | 120* seconds | 145* seconds | positive effects; also recorded: have activity in the mouse forced swim test | – | – | – | – | – | – | – | – | – |
| (+)-MK 801 | – | – | – | – | reduced immobility | – | – | – | – | 190 | 173 | 128* seconds | 84* seconds | 155 | 164 | 80* seconds | 10* seconds | positive effects |
| CN(C)CCCN1c2ccccc2CCc2ccccc21 [Imipramine, imipramine] | – | – | – | 202 | little effect | – | – | 143* seconds | – | – | – | – | – | – | – | – | – | very similar result to that observed with (S)-1-phenyl-2-(2-pyridyl)ethanamine |

— patent publication US6479553B1, “Use of certain affinity NMDA antagonists as antidepressants” (AstraZeneca AB, priority 1999, dated 2002)
